Several values for one entry are separate records, joined by “and”; a condition that tells them apart may be missing. Identical values can stand only once. Like-named read-outs stand apart in the source and are kept apart here. Marks after values point to notes of the source that are not given here.
Tests used:
[1] = single dose i.p. toxicity study in rats
Method: (§1) A single dose i.p. toxicity study in rats was carried out. […] The minimal lethal dose is thus above 100 mg/kg body weight for these compounds.

[2] = test system: Human Breast Adenocarcinoma Cell Line MDA-MB-231; assay: Drug cytotoxicity testing (viable cell count, trypan blue exclusion, cell growth inhibition); format: cell-based
Procedure, shortened: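 A549 cells (10 × 10^3/well) and MDA-MB-231 cells (12 × 10^3/well) were left to adhere for 24 h, then exposed to drugs in medium with 5% FBS for 2 days. Viable cells were counted by trypan blue exclusion after trypsinization. Growth inhibition (%) = (control − test)/control × 100, from three determinations in six replicates each.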

[3] = test system: Human Ovary Adenocarcinoma Cell Line SKOV-3; assay: as above; format: cell-based; conditions: alone or in formulation at molar ratio 1:6
Method: MDA-MB-231 cells were propagated in MEM culture medium with 2 mM L-glutamine, 10% heat-inactivated fetal bovine serum (FBS) and antibiotics. DU 145 cells were cultured in MEM culture medium containing 2 mM L-glutamine, 1 mM sodium pyruvate, 10% FBS and antibiotics. SKOV-3 cells were cultured in McCoy's 5A culture medium, supplemented with 1,5 mM L-glutamine, 10% FBS and antibiotics. A549 cells were cultured in Ham's F-12 culture medium with 1 mM L-glutamine, 10% FBS and antibiotics. All media and supplements were purchased from Sigma-Aldrich (St.Louis, MO, USA). Cell propagation of all lines was carried out in Falcon™ 25 cm^2 cultivation flasks (Becton Dickinson Labware).
Drug cytotoxicity testing was carried out with using Falcon™ 96-well cultivation plates for adherent cells (Becton Dickinson Labware). These plates were seeded by cells either at 12 × 10^3 MDA-MB-231 cells/well, or at 12 × 10^3 DU 145 cells/well, or at 14 × 10^3 SKOV-3 cells/well, or at 10 × 10^3 A549 cells/well in a volume of 200 µL/well.
The cell cultures in cultivation plates were allowed to adhere for 24 hour of incubation. On day 1 after cell seeding, 2 µL solutions of the drugs to be tested in medium with 5% FBS was added to the cultures. In the control cultures, 2 µL of medium with 5% FBS was added as solvent control. The cells were incubated for 2 consecutive days. At the end of the incubation period adherent cells were detached by trypsinization and the number of viable cells was counted using trypan blue exclusion test and a hemocytometer. All data were derived from an average of three determinations each in six replicates. The results were expressed as mean cell number ± SE and the differences between control and test series evaluated by means of Student's t-test. The drug cytotoxicity was evaluated based on the extent of cell growth inhibition. The cell growth inhibition of the tested drugs was calculated as follows: Cell growth inhibition,% = (Control-TestSeries)/(Control) × 100 [formula]

[4] = test system: Human Lung Carcinoma Cell Line A549; assay: as above; format: cell-based
[5] = rat, in vivo, ip
Method: as §1

[6] = cytotoxic drug alone 10^-8 mol/L, average of positive controls in medium with 5% FBS, normal saline and saline with 2,3 mM CaCl2
[7] = cytotoxic drug alone 10^-9 mol/L, average of positive controls in medium with 5% FBS, normal saline and saline with 2,3 mM CaCl2
[8] = compound alone 10^-7 mol/L, in B (normal saline)
[9] = compound alone 10^-8 mol/L, in B (normal saline)
[10] = compound alone 10^-9 mol/L, in B (normal saline)
[11] = sodium salt, range 10^-9 to 10^-7 M

CC1=C(/C=C/C(C)=C/C=C/C(C)=C/C(=O)N[C@@H](CS(=O)O)C(=O)O)C(C)(C)CCC1 (stereo in doubt) [I-2, N-(all-trans-Retinoyl)-L-cysteinesulfinic acid]
minimal lethal dose [1]: above 100 mg/kg body weight

CC(=O)O[C@H]1C(=O)[C@@]2(C)[C@H]([C@H](OC(=O)c3ccccc3)[C@]3(O)C[C@H](OC(=O)[C@H](O)[C@@H](NC(=O)c4ccccc4)c4ccccc4)C(C)=C1C3(C)C)[C@]1(OC(C)=O)CO[C@@H]1C[C@@H]2O [Paclitaxel, paclitaxel, reference compound]
inhibition at 0.01 µM ([2]; Homo sapiens, MDA-MB-231, cytotoxic drug alone 10^-8 mol/L, average of positive controls in medium with 5% FBS, normal saline and saline with 2,3 mM CaCl2, read-out: Cell Growth Inhibition, %): 43.3%
inhibition at 0.001 µM ([2]; Homo sapiens, MDA-MB-231, cytotoxic drug alone 10^-9 mol/L, average of positive controls in medium with 5% FBS, normal saline and saline with 2,3 mM CaCl2, read-out: Cell Growth Inhibition, %): 27.3%
IC50 ([2]; Homo sapiens, MDA-MB-231, cytotoxic drug alone, average of positive controls, calculated from three concentrations, read-out: IC50 mol/L (a)): 17 nM
Tumor Cell Number, × 10^3 ([2]; cytotoxic drug alone 10^-7 mol/L, average of positive controls in medium with 5% FBS, normal saline and saline with 2,3 mM CaCl2): 16.0±0.72 × 10^3 and 16.6±0.86 × 10^3
Cell Growth Inhibition, % [2, 6]: 43.9* %
Tumor Cell Number, × 10^3 [2, 6]: 32.2±1.60 × 10^3 and 32.8±1.07 × 10^3
Cell Growth Inhibition, % [2, 7]: 27.7* %
Tumor Cell Number, × 10^3 [2, 7]: 41.3±1.93 × 10^3 and 42.3±1.55 × 10^3
inhibition at 0.1 µM ([3]; Homo sapiens, SK-OV-3, cytotoxic drug 10^-7 mol/L (100 nM), working solutions in medium with 5% FBS): 71.1%
inhibition at 0.01 µM ([3]; Homo sapiens, SK-OV-3, cytotoxic drug 10^-8 mol/L, working solutions in medium with 5% FBS): 59.9%
inhibition at 0.001 µM ([3]; Homo sapiens, SK-OV-3, cytotoxic drug 10^-9 mol/L, working solutions in medium with 5% FBS): 24.8%
IC50 ([3]; Homo sapiens, SK-OV-3, as concentration of cytotoxic drug, medium with 5% FBS, calculated from three concentrations, read-out: IC50 mol/L (a)): 4.5 nM
Tumor Cell Number, × 10^3 ([3]; cytotoxic drug 10^-7 mol/L (100 nM), working solutions in medium with 5% FBS): 14.1 ± 0.98 × 10^3
Tumor Cell Number, × 10^3 ([3]; cytotoxic drug 10^-7 mol/L (100 nM), working solutions in medium with 5% FBS, listed as paclitaxel): 14.6 ± 0.82 × 10^3
Tumor Cell Number, × 10^3 ([3]; cytotoxic drug 10^-8 mol/L, working solutions in medium with 5% FBS): 19.9 ± 1.45 × 10^3
Tumor Cell Number, × 10^3 ([3]; cytotoxic drug 10^-9 mol/L, working solutions in medium with 5% FBS): 37.3 ± 1.80 × 10^3

COC(=O)[C@H](CS(=O)(=O)O)NC(=O)\C=C(C)/C=C/C=C(C)/C=C/C1=C(C)CCCC1(C)C [compound II-1a, N-(13-cis-retinoyl)-L-cysteic acid methyl ester]
inhibition at 0.1 µM ([4]; Homo sapiens, A549, compound alone 10^-7 mol/L, in A (saline with […] CaCl2)): 34.4%
inhibition at 0.1 µM ([4]; Homo sapiens, A549, compound alone 10^-7 mol/L, in B (normal saline)): 25.6%
increase in cell growth inhibition in A over B at 0.1 µM ([4]; Homo sapiens, A549, compound alone 10^-7 mol/L, read-out: Cell growth inhibition in A compared to that in B was increased by): 11.8%
inhibition at 0.01 µM ([4]; Homo sapiens, A549, compound alone 10^-8 mol/L, in A (saline with […] CaCl2)): 26.9%
inhibition at 0.01 µM ([4]; Homo sapiens, A549, compound alone 10^-8 mol/L, in B (normal saline)): 15.6%
increase in cell growth inhibition in A over B at 0.01 µM ([4]; Homo sapiens, A549, compound alone 10^-8 mol/L, read-out: Cell growth inhibition in A compared to that in B was increased by): 13.4%
inhibition at 0.001 µM ([4]; Homo sapiens, A549, compound alone 10^-9 mol/L, in A (saline with […] CaCl2)): 20.4%
inhibition at 0.001 µM ([4]; Homo sapiens, A549, compound alone 10^-9 mol/L, in B (normal saline)): 7.2%
increase in cell growth inhibition in A over B at 0.001 µM ([4]; Homo sapiens, A549, compound alone 10^-9 mol/L, read-out: Cell growth inhibition in A compared to that in B was increased by): 14.3%
number of viable cells [4, 8]: 41.5 ± 1.80 × 10^3
number of viable cells [4, 9]: 47.1 ± 1.43 × 10^3
number of viable cells [4, 10]: 51.8 ± 2.48 × 10^3
cell growth inhibition in (A) compared to compound in B [4, 11]: ~12%
cell growth inhibition reached on increase of the concentration, in (B) ([4]; sodium salt, range 10^-9 to 10^-7 M, dilution in normal saline (B)): ~26%
inhibition at 0.1 µM ([2]; Homo sapiens, MDA-MB-231, 48 h, compound alone, final concentration 10^-7 mol/L, working solutions in MEM with 5% FBS, two days, read-out: cell growth inhibition): 46.5%
inhibition at 0.01 µM ([2]; Homo sapiens, MDA-MB-231, 48 h, compound alone, final concentration 10^-8 mol/L, working solutions in MEM with 5% FBS, two days, read-out: cell growth inhibition): 44.1%
inhibition at 0.001 µM ([2]; Homo sapiens, MDA-MB-231, 48 h, compound alone, final concentration 10^-9 mol/L, working solutions in MEM with 5% FBS, two days, read-out: cell growth inhibition): 38.8%
inhibition at 0.1 µM ([2]; Homo sapiens, MDA-MB-231, compound alone 10^-7 mol/L, in A (saline with […] CaCl2), read-out: cell growth inhibition): 48.9%
inhibition at 0.1 µM ([2]; Homo sapiens, MDA-MB-231, compound alone 10^-7 mol/L, in B (normal saline), read-out: cell growth inhibition): 40.5%
inhibition at 0.1 µM ([2]; Homo sapiens, MDA-MB-231, compound alone 10^-7 mol/L, read-out: Cell growth inhibition in A compared to that in B was increased by): 14.1%
inhibition at 0.01 µM ([2]; Homo sapiens, MDA-MB-231, compound alone 10^-8 mol/L, in A (saline with […] CaCl2), read-out: cell growth inhibition): 41.7%
inhibition at 0.01 µM ([2]; Homo sapiens, MDA-MB-231, compound alone 10^-8 mol/L, in B (normal saline), read-out: cell growth inhibition): 31.2%
inhibition at 0.01 µM ([2]; Homo sapiens, MDA-MB-231, compound alone 10^-8 mol/L, read-out: Cell growth inhibition in A compared to that in B was increased by): 15.2%
inhibition at 0.001 µM ([2]; Homo sapiens, MDA-MB-231, compound alone 10^-9 mol/L, in A (saline with […] CaCl2), read-out: cell growth inhibition): 35.8%
inhibition at 0.001 µM ([2]; Homo sapiens, MDA-MB-231, compound alone 10^-9 mol/L, in B (normal saline), read-out: cell growth inhibition): 23%
inhibition at 0.001 µM ([2]; Homo sapiens, MDA-MB-231, compound alone 10^-9 mol/L, read-out: Cell growth inhibition in A compared to that in B was increased by): 16.6%
number of viable cells [2, 8]: 34.1 ± 1.97 × 10^3
number of viable cells [2, 9]: 39.4 ± 2.28 × 10^3
number of viable cells [2, 10]: 44.1 ± 2.24 × 10^3
number of viable cells ([2]; compound alone, final concentration 10^-7 mol/L, working solutions in MEM with 5% FBS, two days): 31.3 ± 2.15 × 10^3
number of viable cells ([2]; compound alone, final concentration 10^-8 mol/L, working solutions in MEM with 5% FBS, two days): 32.7 ± 2.06 × 10^3
number of viable cells ([2]; compound alone, final concentration 10^-9 mol/L, working solutions in MEM with 5% FBS, two days): 35.8 ± 2.50 × 10^3
cell growth inhibition in (A) compared to compound in B [2, 11]: ~14%
minimal lethal dose [5]: above 100 mg/kg body weight
mortality ([5]; 100 mg/kg): did not produce mortality

— EP1534672B1, “RETINOL DERIVATIVES, THEIR USE IN THE TREATMENT OF CANCER AND FOR POTENTIATING THE EFFICACY OF OTHER CYTOTOXIC AGENTS” (priority 2002, dated 2004)
